Experimental findings from patent publication US8778954B2, “Phenylpyridine derivative and medicinal agent comprising same” (Kowa Company, Ltd., priority 2009, dated 2014) are described below.

Test [1] addresses T1, angiotensin II type 1 receptor (Oryctolagus cuniculus, UniProt P34976).
T1 construct: By using a specimen of isolated rabbit blood vessels; from tissue; host or cells: rabbit (New Zealand White) thoracic aorta ring
T1 sequence (P34976 1-359): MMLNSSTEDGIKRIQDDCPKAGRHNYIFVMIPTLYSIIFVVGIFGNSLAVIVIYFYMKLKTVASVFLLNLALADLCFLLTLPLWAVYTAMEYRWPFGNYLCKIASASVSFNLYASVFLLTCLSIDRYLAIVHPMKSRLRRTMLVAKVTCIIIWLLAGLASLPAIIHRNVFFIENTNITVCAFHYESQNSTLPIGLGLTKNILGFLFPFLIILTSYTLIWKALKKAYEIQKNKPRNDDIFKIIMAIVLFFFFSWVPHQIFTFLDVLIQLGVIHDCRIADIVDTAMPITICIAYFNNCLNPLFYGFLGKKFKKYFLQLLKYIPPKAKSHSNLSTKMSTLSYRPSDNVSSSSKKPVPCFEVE
The test is described as follows: Angiotensin II receptor antagonistic activity in isolated rabbit blood vessels (thoracic aorta ring, angiotensin II-induced contraction). The conditions noted are these: 0.1 μM test compound, angiotensin II (10 nM)-induced contraction, read-out: Angiotensin II activity inhibitiom rate (%) at 0.1 μM concentration. It is filed as cell-based.
Experimental: By using a specimen of isolated rabbit blood vessels, antagonistic activity of the compounds of the invention against angiotensin II type 1 receptor was estimated from a dose-response curve of angiotensin II-induced blood vessel contraction. Specifically, the specimen of thoracic aorta ring of a rabbit (New Zealand White: male, 2.4 to 3.0 kg) was suspended in a magnus bath filled with Krebs-Henseleite buffer (composition: 118 mM NaCl, 4.7 mM KCl, 2.55 mM CaCl2, 1.18 mM MgSO4, 1.18 mM KH2PO4, 24.88 mM NaHCO3, and 11.1 mM D-glucose), and angiotensin II (10 nM)-induced contraction was obtained in the presence of the compounds of each test (1 nmol/L to 10 μmol/L). During the measurement, the inside temperature of the magnus bath was maintained at 37° C. and the bath was continuously ventilated with a sufficient amount of mixed gas (95% O2 and 5% CO2). The angiotensin II-induced contraction was converted into a relative value (%) that is based on the angiotensin II (0.1 μM)-induced contraction in the absence of the compounds of each example.

The test system of test [2] is spontaneously hypertensive rats (SHR). The test is described as follows: Hypotensive activity with tail cuff method in spontaneously hypertensive rats. It is filed as in vivo, rat. The conditions noted are these: 3 and 10 mg/kg orally once a day for 7 days, 4, 24 and 72 hours after final administration, FIG. 1. As to the method: By using 19-week old spontaneously hypertensive rats (SHR), the body weight and the systolic blood pressure (SBP) of each rat were measured before administration of the medicine, and group separation was performed by blocking assignment so that there was no variation of these values between respective groups. Solvent control (0.5% methyl cellulose solution, MC), 3 mg/kg telmisartan, 3 and 10 mg/kg of the compound of Example 21, and 3 and 10 mg/kg of the compound of Example 23 were orally administered iteratively for 7 days, once a day. The blood pressure and the heart beat rate were measured with tail cuff method at 4, 24, and 72 hours after the administration of the final administration day. Specifically, the rat was put into a cylindrical positioner, maintained at 37° C., and the blood pressure and the heart beat rate were measured from the tail of the rat during the resting state using a non-invasive blood pressure meter (trade name: BP-98A, manufactured by Softron Co., Ltd., Tokyo, Japan). The blood pressure and the heart beat rate were measured for each individual three times or more in a row. When the difference of the systolic blood pressures between the consecutive measurement values was 5 mmHg or less, the average values of these measurement values were taken as data, except for the first measurement. […]

For test [3], the system named is db/db mice. The test is described as follows: Impaired glucose tolerance improving activity in type 2 diabetes model mouse. It is filed as in vivo. The conditions noted are these: oral once a day, Example 23 10 mg/kg, Example 21 30 mg/kg, telmisartan 30 mg/kg; for plasma glucose concentration: 2 weeks after initiation, FIG. 2; for AUC of plasma glucose in the glucose tolerance test (120 minutes after glucose solution): 4 weeks, glucose 2 g/kg, FIG. 3. The method, then: By using 7-week old db/db mice, the body weight and the plasma glucose concentration of each mouse were measured before administration of the medicine, and group separation was performed by blocking assignment so that there was no variation of these values between respective groups. Solvent control (0.5% MC), 5 mg/kg rosiglitazone, 30 mg/kg telmisartan, 10 mg/kg of the compound of Example 23, and 30 mg/kg of the compound of Example 21 were orally administered iteratively for 4 weeks, once a day. Blood collecting was performed from the orbital vein plexus, and the plasma glucose concentration was measured at 2 weeks after the initiation of the administration. Furthermore, oral glucose tolerance test was performed at 4 weeks after the initiation of the administration. Specifically, the mouse was fasted for 24 hours from the night before the glucose tolerance test, and then a glucose solution was orally administered at a dose of 2 g/kg. The blood was collected from the tail vein of the mouse at 15, 30, 60, and 120 minutes after the administration of the glucose solution, and the concentration of the plasma glucose was measured. The area surrounded with the measured plasma glucose concentration and the time was taken as the area under the curve (AUC), and AUC for 120 minutes after administration of the glucose solution was estimated from the trapezoidal method.
Vehicle, Rosiglitazone, Telmisartan, Compound 23, and Compound 21 in FIGS. 2 and 3 represent solvent control, rosiglitazone, telmisartan, the compound of Example 23, and the compound of Example 21, respectively. The vertical axis of FIG. 2 represents the plasma glucose concentration. The data in FIG. 2 represents individual values and average values of each individual. The vertical axis of FIG. 3 represents the area under the curve surrounded with the plasma glucose concentration and the time (for 120 minutes after administration of the glucose solution). The data in FIG. 3 represents individual values and average values of each individual. […] Such activities were not confirmed for the telmisartan administration group.

The test system of test [4] is Zucker diabetic fatty (ZDF) rats. In words: Activity for diabetic nephropathy in Zucker diabetic fatty rats. It is filed as in vivo, rat. The settings on record: 3 mg/kg once a day for 15 weeks; for elimination amount of urinary total protein per 18 hours: FIG. 4; for plasma triglyceride concentration: FIG. 5; for plasma total cholesterol concentration: FIG. 6; for renal protecting activity (diabetic nephropathy): overall conclusion. The method, then: By using 8-week old Zucker diabetic fatty (ZDF) rats, the body weight, the elimination amount of urinary total protein (UTP), the plasma triglyceride concentration (TG), and the plasma total cholesterol concentration (TC) of each rat were measured before administration of the medicine, and group separation was performed by blocking assignment so that there was no variation of these values between respective groups. Solvent control (0.5% MC), 3 mg/kg telmisartan, 3 mg/kg of the compound of Example 21, and 3 mg/kg of the compound of Example 23 were administered iteratively for 15 weeks once a day. UTP, TG, and TC were measured according to a general method during the administration period at 4, 8, 12, and 15 weeks after the administration.
Vehicle, Telmisartan, Compound 23, and Compound 21 in FIGS. 4, 5, and 6 represent solvent control, telmisartan, the compound of Example 23, and the compound of Example 21, respectively. The horizontal axis of FIG. 4-1 represents time (weeks after administration), and the vertical axis represents the elimination amount of urinary total protein per 18 hours. The data in FIG. 4-1 represents average values of each individual in each point, wherein -●- represents Vehicle (solvent control), -♦- represents Telmisartan, -▪- represents Compound 23 (the compound of Example 23), and -▴- represents Compound 21 (the compound of Example 21). The vertical axis of FIG. 4-2 represents the elimination amount of urinary total protein per 18 hours. The data in FIG. 4-2 represents individual values and average values of each individual +standard deviation.
The vertical axis of FIG. 5 represents the plasma triglyceride concentration. The data in FIG. 5 represents individual values and average values of each individual.
The vertical axis of FIG. 6 represents the plasma total cholesterol concentration. The data in FIG. 6 represents individual values and average values of each individual.
Furthermore, it was believed that one reason for the potent activity may be related to improving activity of lipid metabolism, and it is believed that the potent activity is attributed to activities other than the angiotensin receptor antagonistic activity.

Turning to `CCCCc1nc(C(C)C)n(-c2ncc(OCC)cn2)c(=O)c1Cc1ccc(-c2ccccc2-c2noc(=O)[nH]2)nc1` [Example 21, 3-{2-{5-{[4-butyl-1-(5-ethoxypyrimidin-2-yl)-2-isopropyl-6-oxo-1,6-dihydropyrimidin-5-yl]methyl}pyridin-2-yl}phenyl}-1,2,4-oxadiazol-5(4H)-one], the inhibition at 0.1 µM in test [1] was 70.3%. Further, the “blood pressure lowering activity (change in systolic blood pressure from pre-administration)” value in test [2] is “potent blood pressure lowering activity dose-dependently that was equivalent or more to telmisartan”. In test [3], the plasma glucose concentration entry is “remarkable lowering activity of the plasma glucose concentration” and the “AUC of plasma glucose in the glucose tolerance test (120 minutes after glucose solution)” value is “remarkably lowering AUC”. Besides, in test [4], the “elimination amount of urinary total protein per 18 hours” value was “remarkably inhibited increase of the elimination amount of urinary total protein, and their activity was more potent than that of telmisartan”; the plasma triglyceride concentration entry is reported as “remarkably lowered the plasma triglyceride concentration”; the “plasma total cholesterol concentration” value is “remarkably lowered the plasma total cholesterol concentration, and such activity was more potent than that of telmisartan”; the “renal protecting activity (diabetic nephropathy)” value is listed as “potent renal protecting activity”.

With `CCCCc1nc(C2CC2)n(-c2ncc(OCC)cn2)c(=O)c1Cc1ccc(-c2ccccc2-c2noc(=O)[nH]2)nc1` [Example 23, 3-{2-{5-{[4-butyl-2-cyclopropyl-1-(5-ethoxypyrimidin-2-yl)-6-oxo-1,6-dihydropyrimidin-5-yl]methyl}pyridin-2-yl}phenyl}-1,2,4-oxadiazol-5(4H)-one], the inhibition at 0.1 µM in test [1] stood at 75.2%. The “blood pressure lowering activity (change in systolic blood pressure from pre-administration)” value in test [2] is reported as “potent blood pressure lowering activity dose-dependently that was equivalent or more to telmisartan”. In test [3], the plasma glucose concentration result was “remarkable lowering activity of the plasma glucose concentration” and the “AUC of plasma glucose in the glucose tolerance test (120 minutes after glucose solution)” value is on record as “remarkably lowering AUC”. Moreover, in test [4], the “elimination amount of urinary total protein per 18 hours” value was “remarkably inhibited increase of the elimination amount of urinary total protein, and their activity was more potent than that of telmisartan”; the plasma triglyceride concentration result is “remarkably lowered the plasma triglyceride concentration”; the “plasma total cholesterol concentration” value is “remarkably lowered the plasma total cholesterol concentration, and such activity was more potent than that of telmisartan”; the “renal protecting activity (diabetic nephropathy)” value is “potent renal protecting activity”.
